Data from PMC3288743 (Bioorganic & medicinal chemistry letters, 2012).

How the values were obtained:
[1] = molecular target: T1, haspin (Homo sapiens, UniProt Q8TF76); experiment: TR-FRET haspin kinase inhibition assay; assay type: biochemical
T1 sequence (Q8TF76 1-798): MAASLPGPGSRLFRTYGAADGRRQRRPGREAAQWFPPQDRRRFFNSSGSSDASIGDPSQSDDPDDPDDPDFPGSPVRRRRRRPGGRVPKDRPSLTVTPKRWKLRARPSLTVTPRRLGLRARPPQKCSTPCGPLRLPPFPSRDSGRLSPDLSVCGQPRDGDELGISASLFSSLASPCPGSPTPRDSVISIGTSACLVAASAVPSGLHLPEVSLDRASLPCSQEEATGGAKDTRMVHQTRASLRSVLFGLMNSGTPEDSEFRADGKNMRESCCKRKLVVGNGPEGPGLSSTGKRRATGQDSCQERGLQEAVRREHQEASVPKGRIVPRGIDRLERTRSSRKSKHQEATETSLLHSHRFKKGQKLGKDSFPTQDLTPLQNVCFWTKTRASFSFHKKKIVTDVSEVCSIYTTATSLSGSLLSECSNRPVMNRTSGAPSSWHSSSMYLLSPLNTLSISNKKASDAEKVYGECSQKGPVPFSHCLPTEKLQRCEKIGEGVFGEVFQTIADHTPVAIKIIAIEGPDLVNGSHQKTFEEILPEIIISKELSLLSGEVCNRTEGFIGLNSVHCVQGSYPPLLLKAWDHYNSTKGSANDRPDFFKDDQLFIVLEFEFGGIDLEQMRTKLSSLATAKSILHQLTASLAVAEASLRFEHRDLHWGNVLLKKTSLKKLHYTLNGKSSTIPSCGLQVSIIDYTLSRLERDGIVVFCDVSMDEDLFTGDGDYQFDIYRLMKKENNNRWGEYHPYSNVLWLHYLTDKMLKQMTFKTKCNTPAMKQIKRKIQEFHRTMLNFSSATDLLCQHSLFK

[2] = tested on: mouse xenograft model; conditions: cited from earlier work
[3] = molecular target: CLK2 (Homo sapiens, UniProt P49760); experiment: kinase panel profiling; assay type: biochemical; conditions: read-out: inhibition of CLK2
[4] = molecular target: T2, cGK2 (Homo sapiens, UniProt Q13237); experiment: kinase panel profiling; assay type: biochemical; conditions: read-out: inhibition of cGK2
T2 sequence (Q13237 1-762): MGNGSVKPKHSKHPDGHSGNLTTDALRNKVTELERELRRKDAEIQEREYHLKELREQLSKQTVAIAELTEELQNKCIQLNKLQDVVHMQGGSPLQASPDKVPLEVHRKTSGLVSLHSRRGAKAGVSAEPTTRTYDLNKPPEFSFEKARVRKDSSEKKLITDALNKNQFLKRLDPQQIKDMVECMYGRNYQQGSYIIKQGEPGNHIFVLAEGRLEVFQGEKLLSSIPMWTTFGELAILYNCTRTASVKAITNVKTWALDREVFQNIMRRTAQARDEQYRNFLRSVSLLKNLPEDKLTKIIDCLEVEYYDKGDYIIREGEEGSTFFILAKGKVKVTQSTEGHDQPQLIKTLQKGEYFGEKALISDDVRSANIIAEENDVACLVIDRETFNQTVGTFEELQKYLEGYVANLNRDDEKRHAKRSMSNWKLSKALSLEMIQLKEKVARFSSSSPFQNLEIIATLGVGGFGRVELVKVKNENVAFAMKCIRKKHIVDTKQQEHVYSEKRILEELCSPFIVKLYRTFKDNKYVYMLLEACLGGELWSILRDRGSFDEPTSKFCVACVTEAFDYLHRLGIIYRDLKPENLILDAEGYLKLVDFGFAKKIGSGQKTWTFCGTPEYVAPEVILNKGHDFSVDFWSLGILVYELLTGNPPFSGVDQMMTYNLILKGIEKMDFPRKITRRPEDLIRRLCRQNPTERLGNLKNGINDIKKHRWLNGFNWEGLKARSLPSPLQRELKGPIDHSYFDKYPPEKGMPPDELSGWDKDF

[5] = molecular target: T3, PKD3 (Homo sapiens, UniProt O94806); experiment: kinase panel profiling; assay type: biochemical; conditions: read-out: inhibition of PKD3
T3 sequence (O94806 1-890): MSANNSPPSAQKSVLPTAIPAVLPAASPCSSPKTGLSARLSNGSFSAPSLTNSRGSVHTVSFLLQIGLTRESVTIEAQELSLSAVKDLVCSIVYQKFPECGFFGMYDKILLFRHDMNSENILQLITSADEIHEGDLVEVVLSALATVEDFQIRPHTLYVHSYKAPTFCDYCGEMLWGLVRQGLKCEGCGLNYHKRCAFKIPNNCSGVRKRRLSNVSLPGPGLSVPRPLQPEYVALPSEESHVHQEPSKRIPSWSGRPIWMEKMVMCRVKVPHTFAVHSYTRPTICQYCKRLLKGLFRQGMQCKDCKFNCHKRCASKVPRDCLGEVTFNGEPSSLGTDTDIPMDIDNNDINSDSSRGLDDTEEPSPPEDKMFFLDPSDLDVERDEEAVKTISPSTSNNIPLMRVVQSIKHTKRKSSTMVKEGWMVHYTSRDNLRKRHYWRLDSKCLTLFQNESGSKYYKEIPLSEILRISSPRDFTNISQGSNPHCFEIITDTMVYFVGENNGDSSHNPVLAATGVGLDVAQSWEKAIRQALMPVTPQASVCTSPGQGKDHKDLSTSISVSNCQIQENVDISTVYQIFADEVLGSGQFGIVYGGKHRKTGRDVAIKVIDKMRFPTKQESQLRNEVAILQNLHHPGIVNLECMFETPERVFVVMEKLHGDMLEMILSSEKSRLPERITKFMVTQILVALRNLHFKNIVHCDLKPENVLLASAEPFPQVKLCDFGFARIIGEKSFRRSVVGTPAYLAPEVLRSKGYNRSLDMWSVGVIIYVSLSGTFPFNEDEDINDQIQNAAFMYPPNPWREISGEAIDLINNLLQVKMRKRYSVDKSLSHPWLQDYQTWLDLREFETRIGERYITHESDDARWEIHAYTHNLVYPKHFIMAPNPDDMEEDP

[6] = molecular target: CaMK2b (Homo sapiens, UniProt Q13554); experiment: kinase panel profiling; assay type: biochemical; conditions: read-out: inhibition of CaMK2b
[7] = molecular target: CLK1 (Homo sapiens, UniProt P49759); experiment: kinase panel profiling; assay type: biochemical; conditions: read-out: inhibition of CLK1
[8] = molecular target: CK1d (Homo sapiens, UniProt P48730); experiment: kinase panel profiling; assay type: biochemical; conditions: read-out: inhibition of CK1d
[9] = molecular target: DYRK1B (Homo sapiens, UniProt Q9Y463); experiment: kinase panel profiling; assay type: biochemical; conditions: read-out: inhibition of DYRK1B
[10] = molecular target: PASK (Homo sapiens, UniProt Q96RG2); experiment: kinase panel profiling; assay type: biochemical; conditions: read-out: inhibition of PASK
[11] = molecular target: T4, DYRK3 (Homo sapiens, UniProt O43781); experiment: kinase panel profiling; assay type: biochemical; conditions: read-out: inhibition of DYRK3
T4 sequence (O43781 1-588): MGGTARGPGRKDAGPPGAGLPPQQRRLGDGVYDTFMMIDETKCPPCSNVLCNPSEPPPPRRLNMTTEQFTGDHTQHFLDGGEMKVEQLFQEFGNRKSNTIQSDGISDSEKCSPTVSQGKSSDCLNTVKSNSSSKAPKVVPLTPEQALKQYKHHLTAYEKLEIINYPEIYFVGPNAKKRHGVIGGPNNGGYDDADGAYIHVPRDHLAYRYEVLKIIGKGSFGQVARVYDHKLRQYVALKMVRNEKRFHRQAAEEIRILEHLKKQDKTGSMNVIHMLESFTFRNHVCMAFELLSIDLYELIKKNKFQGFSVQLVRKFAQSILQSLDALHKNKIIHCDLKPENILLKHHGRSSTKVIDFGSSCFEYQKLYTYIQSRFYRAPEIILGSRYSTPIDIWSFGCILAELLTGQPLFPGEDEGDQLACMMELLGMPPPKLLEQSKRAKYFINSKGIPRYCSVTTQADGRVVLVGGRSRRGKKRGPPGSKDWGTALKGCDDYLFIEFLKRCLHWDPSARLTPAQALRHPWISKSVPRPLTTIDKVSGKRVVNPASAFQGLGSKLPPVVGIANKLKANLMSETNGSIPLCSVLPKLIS

[12] = molecular target: CDK7-CycH-Mat1 (Homo sapiens, UniProt P50613); experiment: kinase panel profiling; assay type: biochemical; conditions: read-out: inhibition of CDK7-CycH-Mat1
[13] = molecular target: CaMK2d (Homo sapiens, UniProt Q13557); experiment: kinase panel profiling; assay type: biochemical; conditions: read-out: inhibition of CaMK2d
[14] = molecular target: DYRK1A (Homo sapiens, UniProt Q13627); experiment: kinase panel profiling; assay type: biochemical; conditions: read-out: inhibition of DYRK1A
[15] = molecular target: PIM1 (Homo sapiens, UniProt P11309); experiment: kinase panel profiling; assay type: biochemical; conditions: read-out: inhibition of PIM1
[16] = molecular target: T1, haspin; experiment: biochemical; conditions: read-out: inhibition of haspin

Sequence of PASK (Q96RG2 whole entry): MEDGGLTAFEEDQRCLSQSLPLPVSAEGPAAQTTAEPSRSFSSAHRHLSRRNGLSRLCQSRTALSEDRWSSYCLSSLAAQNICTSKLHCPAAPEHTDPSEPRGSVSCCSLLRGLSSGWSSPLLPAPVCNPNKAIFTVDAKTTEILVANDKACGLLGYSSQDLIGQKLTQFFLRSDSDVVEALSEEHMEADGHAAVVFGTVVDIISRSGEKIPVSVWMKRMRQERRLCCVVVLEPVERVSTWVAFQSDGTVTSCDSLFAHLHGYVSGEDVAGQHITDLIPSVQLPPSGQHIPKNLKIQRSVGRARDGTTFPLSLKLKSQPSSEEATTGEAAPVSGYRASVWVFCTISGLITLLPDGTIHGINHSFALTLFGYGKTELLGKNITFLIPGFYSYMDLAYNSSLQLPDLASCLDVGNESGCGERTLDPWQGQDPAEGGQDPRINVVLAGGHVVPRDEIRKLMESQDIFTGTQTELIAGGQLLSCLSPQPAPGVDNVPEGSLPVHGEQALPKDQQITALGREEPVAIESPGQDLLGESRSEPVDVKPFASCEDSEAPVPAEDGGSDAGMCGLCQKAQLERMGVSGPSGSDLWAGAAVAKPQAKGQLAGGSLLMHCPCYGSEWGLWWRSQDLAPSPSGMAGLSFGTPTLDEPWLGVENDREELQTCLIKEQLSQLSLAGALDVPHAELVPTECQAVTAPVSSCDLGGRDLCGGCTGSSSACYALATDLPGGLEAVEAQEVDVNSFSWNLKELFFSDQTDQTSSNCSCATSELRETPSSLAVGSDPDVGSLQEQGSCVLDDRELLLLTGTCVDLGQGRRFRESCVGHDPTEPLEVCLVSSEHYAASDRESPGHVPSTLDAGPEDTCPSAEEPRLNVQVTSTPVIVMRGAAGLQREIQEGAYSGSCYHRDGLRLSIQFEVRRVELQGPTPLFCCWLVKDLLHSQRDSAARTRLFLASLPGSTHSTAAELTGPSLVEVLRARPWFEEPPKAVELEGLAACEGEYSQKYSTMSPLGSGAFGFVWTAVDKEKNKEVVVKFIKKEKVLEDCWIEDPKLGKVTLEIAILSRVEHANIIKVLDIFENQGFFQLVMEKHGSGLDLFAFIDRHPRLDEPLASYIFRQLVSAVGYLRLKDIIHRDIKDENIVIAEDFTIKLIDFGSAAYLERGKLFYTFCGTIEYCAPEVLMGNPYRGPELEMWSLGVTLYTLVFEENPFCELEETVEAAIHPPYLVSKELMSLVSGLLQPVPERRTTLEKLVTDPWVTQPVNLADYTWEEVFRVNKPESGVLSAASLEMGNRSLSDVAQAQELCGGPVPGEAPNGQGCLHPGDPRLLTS
Sequence of CaMK2b (Q13554 whole entry, species assumed): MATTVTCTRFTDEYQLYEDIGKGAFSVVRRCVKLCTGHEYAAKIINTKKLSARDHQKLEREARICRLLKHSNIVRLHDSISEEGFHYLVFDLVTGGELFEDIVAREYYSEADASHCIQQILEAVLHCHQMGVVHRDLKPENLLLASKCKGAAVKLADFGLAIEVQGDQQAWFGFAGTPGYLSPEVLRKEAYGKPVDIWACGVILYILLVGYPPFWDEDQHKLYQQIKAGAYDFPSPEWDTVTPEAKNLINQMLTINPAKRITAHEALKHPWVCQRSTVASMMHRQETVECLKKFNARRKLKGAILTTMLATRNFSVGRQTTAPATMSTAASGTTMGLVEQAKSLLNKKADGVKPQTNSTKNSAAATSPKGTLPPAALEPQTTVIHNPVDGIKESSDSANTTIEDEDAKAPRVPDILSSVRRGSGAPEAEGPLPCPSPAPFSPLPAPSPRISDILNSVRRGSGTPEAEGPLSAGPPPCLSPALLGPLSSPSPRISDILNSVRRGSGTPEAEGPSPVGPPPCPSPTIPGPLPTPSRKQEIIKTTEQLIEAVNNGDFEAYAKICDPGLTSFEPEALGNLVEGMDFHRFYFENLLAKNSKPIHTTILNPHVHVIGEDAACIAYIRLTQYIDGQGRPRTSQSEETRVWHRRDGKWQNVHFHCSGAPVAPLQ
Sequence of CLK1 (P49759 whole entry): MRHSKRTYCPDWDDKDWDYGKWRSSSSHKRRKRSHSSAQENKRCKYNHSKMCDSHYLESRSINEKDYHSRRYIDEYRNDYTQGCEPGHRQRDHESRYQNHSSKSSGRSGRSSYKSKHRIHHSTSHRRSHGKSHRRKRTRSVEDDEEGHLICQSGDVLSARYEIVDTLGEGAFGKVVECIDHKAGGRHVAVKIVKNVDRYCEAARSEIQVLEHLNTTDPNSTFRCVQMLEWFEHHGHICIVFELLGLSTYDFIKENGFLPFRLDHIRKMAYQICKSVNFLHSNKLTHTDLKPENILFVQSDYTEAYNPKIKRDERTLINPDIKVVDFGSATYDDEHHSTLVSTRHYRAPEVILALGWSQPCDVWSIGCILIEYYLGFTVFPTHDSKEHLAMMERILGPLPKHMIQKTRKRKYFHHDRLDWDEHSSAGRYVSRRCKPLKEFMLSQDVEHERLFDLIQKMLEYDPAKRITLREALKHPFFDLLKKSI
Sequence of CLK2 (P49760 whole entry, species assumed): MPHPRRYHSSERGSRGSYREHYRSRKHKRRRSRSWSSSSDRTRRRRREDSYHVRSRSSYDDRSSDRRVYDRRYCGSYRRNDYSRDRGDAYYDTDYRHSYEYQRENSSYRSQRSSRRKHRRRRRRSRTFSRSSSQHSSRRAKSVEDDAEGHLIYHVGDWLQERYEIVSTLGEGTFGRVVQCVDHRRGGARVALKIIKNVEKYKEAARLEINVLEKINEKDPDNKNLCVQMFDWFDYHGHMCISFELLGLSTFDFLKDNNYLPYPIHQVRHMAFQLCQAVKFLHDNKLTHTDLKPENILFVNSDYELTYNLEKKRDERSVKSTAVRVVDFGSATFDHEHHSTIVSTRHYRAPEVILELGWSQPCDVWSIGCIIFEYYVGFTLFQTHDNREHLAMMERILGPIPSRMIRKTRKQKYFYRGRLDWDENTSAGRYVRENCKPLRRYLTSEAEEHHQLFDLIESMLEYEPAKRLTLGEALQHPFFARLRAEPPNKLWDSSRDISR
Sequence of CK1d (P48730 whole entry): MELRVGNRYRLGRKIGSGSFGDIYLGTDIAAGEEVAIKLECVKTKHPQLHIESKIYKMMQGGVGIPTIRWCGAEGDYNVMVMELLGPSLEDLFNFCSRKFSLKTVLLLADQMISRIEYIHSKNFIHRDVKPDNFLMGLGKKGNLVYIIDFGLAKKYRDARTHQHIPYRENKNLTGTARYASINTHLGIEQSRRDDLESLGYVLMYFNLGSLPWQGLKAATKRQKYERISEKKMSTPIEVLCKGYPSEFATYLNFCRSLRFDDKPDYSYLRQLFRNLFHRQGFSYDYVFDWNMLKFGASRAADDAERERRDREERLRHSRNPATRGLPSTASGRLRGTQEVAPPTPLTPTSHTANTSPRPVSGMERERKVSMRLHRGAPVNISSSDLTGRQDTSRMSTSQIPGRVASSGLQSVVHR
Sequence of PIM1 (P11309 whole entry, species assumed): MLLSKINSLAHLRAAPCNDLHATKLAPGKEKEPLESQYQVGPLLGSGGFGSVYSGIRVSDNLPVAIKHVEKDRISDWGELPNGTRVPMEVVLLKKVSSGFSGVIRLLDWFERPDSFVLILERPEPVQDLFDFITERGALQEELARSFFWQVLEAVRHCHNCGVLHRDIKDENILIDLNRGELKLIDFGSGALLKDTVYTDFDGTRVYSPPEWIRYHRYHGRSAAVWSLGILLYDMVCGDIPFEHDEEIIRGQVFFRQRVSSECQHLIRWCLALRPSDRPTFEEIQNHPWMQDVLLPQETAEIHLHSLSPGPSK
Sequence of CDK7-CycH-Mat1 (P50613 whole entry): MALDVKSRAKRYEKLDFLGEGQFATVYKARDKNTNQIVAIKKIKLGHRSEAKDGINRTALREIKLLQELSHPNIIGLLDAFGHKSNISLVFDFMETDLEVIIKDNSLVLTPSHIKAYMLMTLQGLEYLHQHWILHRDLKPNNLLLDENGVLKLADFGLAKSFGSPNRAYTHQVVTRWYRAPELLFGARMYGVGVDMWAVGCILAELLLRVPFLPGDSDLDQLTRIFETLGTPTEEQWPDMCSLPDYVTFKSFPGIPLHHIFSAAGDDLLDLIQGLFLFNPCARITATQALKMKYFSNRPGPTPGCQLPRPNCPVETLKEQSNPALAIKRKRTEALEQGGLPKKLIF
Sequence of CDK7-CycH-Mat1 (P51946 whole entry partner): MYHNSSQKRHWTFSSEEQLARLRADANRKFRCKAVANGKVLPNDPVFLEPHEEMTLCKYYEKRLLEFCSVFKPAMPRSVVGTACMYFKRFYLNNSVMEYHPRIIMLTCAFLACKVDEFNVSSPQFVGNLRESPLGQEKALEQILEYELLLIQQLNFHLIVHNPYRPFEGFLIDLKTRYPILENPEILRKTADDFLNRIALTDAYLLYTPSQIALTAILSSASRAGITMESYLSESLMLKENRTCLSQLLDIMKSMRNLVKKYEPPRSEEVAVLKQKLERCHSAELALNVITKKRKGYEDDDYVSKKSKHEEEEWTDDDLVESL
Sequence of CDK7-CycH-Mat1 (P51948 whole entry partner): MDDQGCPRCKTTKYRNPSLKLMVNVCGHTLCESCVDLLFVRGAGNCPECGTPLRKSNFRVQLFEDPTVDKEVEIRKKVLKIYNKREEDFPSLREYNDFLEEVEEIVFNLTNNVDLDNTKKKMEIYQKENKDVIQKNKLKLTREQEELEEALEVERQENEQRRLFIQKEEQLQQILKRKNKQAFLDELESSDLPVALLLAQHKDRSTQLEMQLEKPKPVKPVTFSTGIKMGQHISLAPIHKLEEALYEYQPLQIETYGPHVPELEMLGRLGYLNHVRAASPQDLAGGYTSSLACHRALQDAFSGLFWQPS

In the case of Cc1nccc2c1[nH]c1cc(OCCCCN)ccc12 [7b], the “haspin inhibition at 10 µM” value [1] is reported as “inactive”.

In the case of Cc1nccc2c1[nH]c1cc(OCCCN)ccc12 [7a], the “haspin inhibition at 10 µM” value [1] is reported as “inactive”.

For CCCNc1ccc2ncc(-c3ccc4[nH]ncc4c3)n2n1 [CHR-6494], the anti-tumor activity [2] is given as “displayed anti-tumor activity”.

COc1ccc2c3ccnc(C(F)(F)F)c3n(CCCCN)c2c1 [compound 42] gave an inhibition at 10 µM [3] of no less than 90%, an inhibition at 10 µM [4] of no less than 90% and an inhibition at 10 µM [5] of no less than 90%. It also gave an inhibition at 10 µM [6] of no less than 90%, an inhibition at 10 µM [7] of no less than 90% and an inhibition at 10 µM [8] of no less than 90%. For the same compound, the inhibition at 10 µM [9] was no less than 90%, the inhibition at 10 µM [10] was no less than 90% and the inhibition at 10 µM [11] was no less than 90%. The inhibition at 10 µM [12] was no less than 90%, the inhibition at 10 µM [13] was no less than 90% and the inhibition at 10 µM [14] was no less than 90%. For the same compound, the inhibition at 10 µM [15] was no less than 90% and the inhibition at 10 µM [16] was no less than 90%.
